Test results: patent publication US20230303569A1, “HETEROCYCLIC COMPOUNDS AS THERAPEUTIC AGENTS” (Arisan Therapeutics Inc., priority 2021, published 2023)
Where two headings read alike, the source gives them in different places.

Legend:
[1] = target: T1, human Nav1.6 (Homo sapiens, UniProt Q9UQD0); assay: Two pulse assay protocol, Nav1.6; assay type: cell-based; conditions: peak current
T1 construct: host or cells: HEK293
Experimental: (§1) In vitro Na+ Current Inhibition Assays were performed by Eurofins Discovery (St Charles, MO). All compound functional activity determinations were determined through electrophysiological analyses of Na+ currents in HEK293 cells expressing a stably transfected Na+ channel (human Nav1.1, 1.2, 1.3, 1.5, 1.6, 1.7, or 1.8). After harvesting with Accutase cells are maintained in serum free medium at room temperature prior to electrophysiological recording utilizing the QPatch HT automated whole-cell patch-clamp platform (Sophion Bioscience, Woburn MA). Stock solution aliquots of the test compound are prepared in DMSO at 300× the final assay concentrations, and stored at −20° C. until the day of assay. On the day of the assay, an aliquot of the stock solution is thawed and diluted into external solution (137 mM NaCl, 4 mM KCl, 1 mM MgCl2, 1.8 mM CaCl2, 10 mM HEPES, 10 mM Glucose (pH 7.3, titrated with 10M NaOH) to make final test concentrations. A final concentration of 0.33% DMSO is maintained for each concentration of the assay compounds. Internal solution for recordings of Na+ consist consists of 100 mM CsF, 45 mM CsCl, 5 mM NaCl, 10 mM HEPES, 5 mM EGTA (pH 7.3, titrated with 1M CsOH).
(§2) Two pulse assay protocol for human Nav1.1, 1.2, 1.3, 1.5, 1.6, 1.7, and 1.8 channels. Mammalian cultured cells expressing the indicated human Nav1.1, 1.2, 1.3, 1.5, 1.6, 1.7 or 1.8 channels were assayed using the The QPatch HT (Sophion Bioscience, Woburn MA) automated system with an intracellular solution (mM) of 100 CsF, 45 CsCl, 5 NaCl, 10 HEPES, 5 EGTA (pH 7.3, titrated with 1M CsOH) and extracellular solution (mM) of 137 NaCl, 4 KCl, 1 MgCl2, 1.8 CaCl2, 10 HEPES, 10 Glucose (pH 7.3, titrated with 10M NaOH). Onset and steady state block of the sodium channel was measured using a pulse pattern, repeated every 20 seconds (s) from a holding potential of −120 mV for 100 ms, and then pulsed to 0 mV for 500 ms to inactivate the Na channels and facilitate inactivated state-dependent binding of the test compounds. The cell membranes were then stepped back to −120 mV for 10 ms to recover from inactivation into resting or closed state (channels with test compound bound to them will not recover from inactivation and will not open) before stepping to 0 mV for 50 ms (pulse 2) to measure Na channels that are available to open. Peak current was measured during the step to 0 mV at pulse 1 and 2 to measure tonic and state-dependent inhibition. Compound activities were assessed by dividing post current amplitude (at the end of each five (5) minute compound application) by the vehicle control amplitude and the mean calculated for each compound concentration. Tetracaine was used as a positive control and was tested concurrently with the test compounds. Current amplitudes in excess of 200 pA at the control stage were analyzed. The amplitude of the current was calculated by measuring the difference between the peak inward current on stepping to 0 mV (i.e. peak of the current) and remaining current at the end of the step. The current was assessed in vehicle control conditions and then at the end of each five (5) minute compound application.

[2] = target: T2, human Nav1.8 (Homo sapiens, UniProt Q9Y5Y9); assay: Two pulse assay protocol, Nav1.8; assay type: cell-based; conditions: peak current
T2 construct: host or cells: HEK293
T2 sequence (Q9Y5Y9 whole entry): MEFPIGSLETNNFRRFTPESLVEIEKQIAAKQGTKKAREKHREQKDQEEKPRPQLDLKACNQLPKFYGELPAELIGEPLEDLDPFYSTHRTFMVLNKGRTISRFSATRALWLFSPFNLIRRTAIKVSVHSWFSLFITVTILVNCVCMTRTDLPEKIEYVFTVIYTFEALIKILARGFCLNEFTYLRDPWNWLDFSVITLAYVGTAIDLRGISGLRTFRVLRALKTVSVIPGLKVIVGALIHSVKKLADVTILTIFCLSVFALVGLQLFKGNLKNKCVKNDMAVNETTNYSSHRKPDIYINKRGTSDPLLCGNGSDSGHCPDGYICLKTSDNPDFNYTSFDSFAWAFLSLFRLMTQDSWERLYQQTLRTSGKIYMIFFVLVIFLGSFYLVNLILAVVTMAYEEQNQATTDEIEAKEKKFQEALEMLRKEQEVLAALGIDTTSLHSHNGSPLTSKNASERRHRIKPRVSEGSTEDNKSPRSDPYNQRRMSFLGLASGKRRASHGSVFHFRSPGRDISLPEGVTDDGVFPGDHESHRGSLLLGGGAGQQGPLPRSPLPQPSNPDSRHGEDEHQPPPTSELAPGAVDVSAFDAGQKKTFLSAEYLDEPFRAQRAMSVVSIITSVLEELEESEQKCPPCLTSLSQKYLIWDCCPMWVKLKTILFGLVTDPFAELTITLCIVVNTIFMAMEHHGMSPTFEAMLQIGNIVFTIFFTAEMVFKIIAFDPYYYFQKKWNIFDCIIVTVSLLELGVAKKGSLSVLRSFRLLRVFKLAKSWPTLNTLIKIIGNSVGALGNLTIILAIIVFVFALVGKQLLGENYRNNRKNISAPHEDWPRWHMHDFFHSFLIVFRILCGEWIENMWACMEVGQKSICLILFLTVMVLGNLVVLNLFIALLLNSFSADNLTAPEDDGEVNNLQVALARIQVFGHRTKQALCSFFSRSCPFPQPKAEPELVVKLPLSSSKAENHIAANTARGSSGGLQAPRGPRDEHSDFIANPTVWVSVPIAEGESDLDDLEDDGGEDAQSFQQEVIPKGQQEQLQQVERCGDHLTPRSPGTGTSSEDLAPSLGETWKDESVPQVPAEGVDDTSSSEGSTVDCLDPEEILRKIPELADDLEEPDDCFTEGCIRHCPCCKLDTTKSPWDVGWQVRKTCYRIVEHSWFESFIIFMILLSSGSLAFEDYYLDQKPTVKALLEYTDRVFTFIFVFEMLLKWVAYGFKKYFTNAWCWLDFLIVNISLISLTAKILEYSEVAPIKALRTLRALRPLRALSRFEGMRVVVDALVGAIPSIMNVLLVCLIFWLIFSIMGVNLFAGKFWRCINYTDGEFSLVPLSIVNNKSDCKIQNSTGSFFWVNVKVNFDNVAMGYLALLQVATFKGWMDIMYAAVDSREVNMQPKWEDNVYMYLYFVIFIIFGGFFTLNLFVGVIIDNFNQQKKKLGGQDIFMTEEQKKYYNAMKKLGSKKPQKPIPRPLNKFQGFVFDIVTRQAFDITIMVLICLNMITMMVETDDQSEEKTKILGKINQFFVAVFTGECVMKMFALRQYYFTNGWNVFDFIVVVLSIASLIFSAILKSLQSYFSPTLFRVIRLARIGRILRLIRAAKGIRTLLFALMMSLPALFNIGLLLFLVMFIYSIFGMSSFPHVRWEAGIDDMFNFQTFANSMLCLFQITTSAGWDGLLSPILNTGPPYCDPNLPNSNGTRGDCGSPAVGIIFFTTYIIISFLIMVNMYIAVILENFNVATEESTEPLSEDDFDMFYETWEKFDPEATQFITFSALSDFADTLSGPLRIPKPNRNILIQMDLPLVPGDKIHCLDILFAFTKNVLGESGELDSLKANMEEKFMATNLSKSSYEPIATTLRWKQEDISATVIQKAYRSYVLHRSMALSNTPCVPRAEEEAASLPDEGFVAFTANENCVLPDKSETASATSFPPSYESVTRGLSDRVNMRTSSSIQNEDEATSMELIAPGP
Experimental: as §1, §2

[3] = pulse 1 (tonic), read-out: percent inhibition hNav1.6, Pulse 1 (5 uM)
[4] = pulse 2 (state-dependent), read-out: percent inhibition hNav1.6, Pulse 2 (5 uM)
[5] = pulse 1 (tonic), read-out: percent inhibition hNav1.6, Pulse 1 (2.5 uM)
[6] = pulse 2 (state-dependent), read-out: percent inhibition hNav1.6, Pulse 2 (2.5 uM)
[7] = pulse 1 (tonic), read-out: percent inhibition hNav1.8, Pulse 1 (5 uM)
[8] = pulse 2 (state-dependent), read-out: percent inhibition hNav1.8, Pulse 2 (5 uM)

T1 sequence (Q9UQD0 whole entry): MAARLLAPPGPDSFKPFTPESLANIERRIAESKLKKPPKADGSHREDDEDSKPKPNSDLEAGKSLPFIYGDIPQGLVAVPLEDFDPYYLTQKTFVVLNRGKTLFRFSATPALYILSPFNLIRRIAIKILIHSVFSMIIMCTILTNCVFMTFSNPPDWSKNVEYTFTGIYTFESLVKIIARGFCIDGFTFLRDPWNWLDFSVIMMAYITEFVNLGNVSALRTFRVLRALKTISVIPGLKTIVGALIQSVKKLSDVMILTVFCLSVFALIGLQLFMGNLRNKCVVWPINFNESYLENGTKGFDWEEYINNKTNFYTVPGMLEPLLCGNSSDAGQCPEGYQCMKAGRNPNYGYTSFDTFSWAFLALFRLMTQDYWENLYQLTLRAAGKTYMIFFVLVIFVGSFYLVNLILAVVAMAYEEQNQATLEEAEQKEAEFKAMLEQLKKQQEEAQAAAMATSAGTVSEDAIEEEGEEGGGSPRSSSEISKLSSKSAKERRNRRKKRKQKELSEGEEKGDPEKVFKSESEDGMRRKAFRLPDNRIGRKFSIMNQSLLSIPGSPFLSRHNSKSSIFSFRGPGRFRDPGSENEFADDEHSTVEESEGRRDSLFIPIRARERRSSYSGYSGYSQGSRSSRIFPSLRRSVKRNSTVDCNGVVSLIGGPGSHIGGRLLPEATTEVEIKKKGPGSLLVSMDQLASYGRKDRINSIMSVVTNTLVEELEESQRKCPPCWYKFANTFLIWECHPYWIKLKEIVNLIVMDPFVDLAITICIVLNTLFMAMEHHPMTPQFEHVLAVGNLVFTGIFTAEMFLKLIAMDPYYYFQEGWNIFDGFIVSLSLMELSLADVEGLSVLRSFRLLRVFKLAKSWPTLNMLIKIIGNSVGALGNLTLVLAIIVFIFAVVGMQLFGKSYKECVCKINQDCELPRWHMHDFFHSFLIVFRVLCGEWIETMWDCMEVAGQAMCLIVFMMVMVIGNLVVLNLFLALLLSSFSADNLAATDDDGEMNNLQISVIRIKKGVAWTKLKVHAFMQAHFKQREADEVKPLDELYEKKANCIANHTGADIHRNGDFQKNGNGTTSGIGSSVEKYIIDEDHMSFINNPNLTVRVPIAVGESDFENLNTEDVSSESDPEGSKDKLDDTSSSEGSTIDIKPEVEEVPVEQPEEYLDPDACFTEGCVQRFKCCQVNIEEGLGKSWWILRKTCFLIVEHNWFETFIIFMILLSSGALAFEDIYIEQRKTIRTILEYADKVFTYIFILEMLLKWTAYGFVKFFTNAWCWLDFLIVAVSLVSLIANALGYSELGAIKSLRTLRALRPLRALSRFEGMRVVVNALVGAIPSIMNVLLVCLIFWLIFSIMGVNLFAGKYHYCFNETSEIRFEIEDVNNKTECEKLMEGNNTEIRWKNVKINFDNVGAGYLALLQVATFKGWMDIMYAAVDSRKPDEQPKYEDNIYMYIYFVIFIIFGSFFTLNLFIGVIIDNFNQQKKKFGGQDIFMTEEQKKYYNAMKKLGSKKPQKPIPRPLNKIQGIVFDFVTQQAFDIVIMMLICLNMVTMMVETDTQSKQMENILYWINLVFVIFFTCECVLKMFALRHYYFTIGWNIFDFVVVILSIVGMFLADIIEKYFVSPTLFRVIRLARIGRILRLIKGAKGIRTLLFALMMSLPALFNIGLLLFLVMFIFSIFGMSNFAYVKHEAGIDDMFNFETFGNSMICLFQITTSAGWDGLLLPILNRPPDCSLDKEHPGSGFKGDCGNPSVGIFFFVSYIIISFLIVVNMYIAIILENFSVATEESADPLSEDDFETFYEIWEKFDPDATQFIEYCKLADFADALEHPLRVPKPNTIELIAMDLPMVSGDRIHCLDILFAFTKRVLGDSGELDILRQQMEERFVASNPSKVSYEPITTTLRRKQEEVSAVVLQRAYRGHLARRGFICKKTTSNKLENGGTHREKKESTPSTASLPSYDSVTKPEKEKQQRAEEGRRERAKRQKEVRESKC

CC(C)Oc1ccc(-c2ccc3ncc(-c4ccc(OC(C)C)cc4)n3c2)cc1 [Example C2, 3,6-bis[4-(propan-2-yloxy)phenyl]imidazo[1,2-a]pyridine]
inhibition at 5 µM [1, 3]: < 50% | inhibition at 5 µM [1, 4]: > 90%

Cc1cc(OC(C)C)ccc1-c1ccc2ncc(-c3ccc(OC(C)C)cc3)n2c1 [Example C18, 6-[2-methyl-4-(propan-2-yloxy)phenyl]-3-[4-(propan-2-yloxy)phenyl]imidazo[1,2-a]pyridine]
inhibition at 5 µM [1, 3]: < 50% | inhibition at 5 µM [1, 4]: 50 to 90%

CC(C)Oc1ccc(-c2cnc3ccc(-c4ccc(OC(C)(C)C)cc4)cn23)cc1 [Example C21, 6-[4-(tert-butoxy)phenyl]-3-[4-(propan-2-yloxy)phenyl]imidazo[1,2-a]pyridine]
inhibition at 5 µM [1, 3]: < 50% | inhibition at 5 µM [1, 4]: > 90%

CC(C)Oc1ccc(-c2cnc3ccc(-c4ccc(OC(C)C)cc4F)cn23)cc1 [Example C23, 6-[2-fluoro-4-(propan-2-yloxy)phenyl]-3-[4-(propan-2-yloxy)phenyl]imidazo[1,2-a]pyridine]
inhibition at 5 µM [1, 3]: < 50% | inhibition at 5 µM [1, 4]: < 50%

Cc1cc2ncc(-c3ccc(OC(C)C)cc3)n2cc1-c1ccc(OC(C)C)cc1 [Example C48, 7-methyl-3,6-bis[4-(propan-2-yloxy)phenyl]imidazo[1,2-a]pyridine]
inhibition at 5 µM [1, 3]: < 50% | inhibition at 5 µM [1, 4]: 50 to 90%

Cc1cc(-c2ccc(OC(C)C)cc2)cn2c(-c3ccc(OC(C)C)cc3)cnc12 [Example C50, 8-methyl-3,6-bis[4-(propan-2-yloxy)phenyl]imidazo[1,2-a]pyridine]
inhibition at 5 µM [1, 3]: < 50% | inhibition at 5 µM [1, 4]: < 50%

Cc1c(-c2ccc(OC(C)C)cc2)ccc2ncc(-c3ccc(OC(C)C)cc3)n12 [Example C51, 5-methyl-3,6-bis[4-(propan-2-yloxy)phenyl]imidazo[1,2-a]pyridine]
inhibition at 5 µM [1, 3]: < 50% | inhibition at 5 µM [1, 4]: < 50%

COc1cc(OC)cc(-c2ccc3ncc(-c4ccc(OC(F)(F)F)cc4)n3c2)c1 [Example C58, 6-(3,5-dimethoxyphenyl)-3-(4-(trifluoromethoxy)phenyl)imidazo[1,2-a]pyridine]
inhibition at 2.5 µM [1, 5]: < 50% | inhibition at 2.5 µM [1, 6]: > 90% | inhibition at 5 µM [2, 7]: 50 to 90% | inhibition at 5 µM [2, 8]: 50 to 90%

COc1cc(OC)cc(-c2cnc3ccc(-c4ccc(OC(F)(F)F)cc4)cn23)c1 [Example C59, 3-(3,5-dimethoxyphenyl)-6-(4-(trifluoromethoxy)phenyl)imidazo[1,2-a]pyridine]
inhibition at 5 µM [2, 7]: < 50% | inhibition at 5 µM [2, 8]: < 50%

CC(C)Oc1ccc(-c2ccc3ncc(-c4ccc(OC(C)C)nc4F)n3c2)cc1 [Example C74, 3-(2-fluoro-6-isopropoxypyridin-3-yl)-6-(4-isopropoxyphenyl)imidazo[1,2-a]pyridine]
inhibition at 5 µM [1, 3]: < 50% | inhibition at 5 µM [1, 4]: 50 to 90%

CC(C)Oc1ccc(-c2ccc3ncc(-c4cnc(OC(C)C)nc4)n3c2)cc1 [Example C75, 6-(4-isopropoxyphenyl)-3-(2-isopropoxypyrimidin-5-yl)imidazo[1,2-a]pyridine]
inhibition at 5 µM [1, 3]: < 50% | inhibition at 5 µM [1, 4]: 50 to 90%

CC(C)Oc1ccc(-c2ccc3ncc(-c4ccnc(OC(C)C)c4)n3c2)cc1 [Example C76, 6-(4-isopropoxyphenyl)-3-(2-isopropoxypyridin-4-yl)imidazo[1,2-a]pyridine]
inhibition at 5 µM [1, 3]: < 50% | inhibition at 5 µM [1, 4]: > 90%

CC(C)Oc1ccc(-c2ccc3ncc(-c4cncc(OC(C)C)c4)n3c2)cc1 [Example C77, 6-(4-isopropoxyphenyl)-3-(5-isopropoxypyridin-3-yl)imidazo[1,2-a]pyridine]
inhibition at 5 µM [1, 3]: < 50% | inhibition at 5 µM [1, 4]: 50 to 90%

Cc1cc2ncc(-c3ccc(OC(C)(C)C)cc3)n2cc1-c1ccc(OC(C)C)nc1 [Example C78, 3-(4-(tert-butoxy)phenyl)-6-(6-isopropoxypyridin-3-yl)-7-methylimidazo[1,2-a]pyridine]
inhibition at 5 µM [1, 3]: < 50% | inhibition at 5 µM [1, 4]: > 90%

Cc1cc2ncc(-c3ccc(OC(C)(C)C)cc3)n2cc1-c1ccc(OC(C)C)c(F)c1 [Example C79, 3-(4-(tert-butoxy)phenyl)-6-(3-fluoro-4-isopropoxyphenyl)-7-methylimidazo[1,2-a]pyridine]
inhibition at 5 µM [1, 3]: < 50% | inhibition at 5 µM [1, 4]: 50 to 90%

Cc1cc2ncc(-c3ccc(OC(C)C)cc3)n2cc1-c1ccc(OC(C)C)c(F)c1 [Example C80, 6-(3-fluoro-4-isopropoxyphenyl)-3-(4-isopropoxyphenyl)-7-methylimidazo[1,2-a]pyridine]
inhibition at 5 µM [1, 3]: < 50% | inhibition at 5 µM [1, 4]: < 50%

CC(C)Oc1ccc(-c2ccc3ncc(-c4ccc(OC(C)(C)C)cc4)n3c2)cc1F [Example C81, 3-(4-(tert-butoxy)phenyl)-6-(3-fluoro-4-isopropoxyphenyl)imidazo[1,2-a] pyridine]
inhibition at 5 µM [1, 3]: < 50% | inhibition at 5 µM [1, 4]: > 90%

CC(C)(C)Oc1ccc(-c2ccc3ncc(-c4ccc(OC(C)(C)C)cc4)n3c2)cc1 [Example C82, 3,6-bis(4-(tert-butoxy)phenyl)imidazo[1,2-a]pyridine]
inhibition at 5 µM [1, 3]: < 50% | inhibition at 5 µM [1, 4]: > 90%

CC(C)Oc1ccc(-c2ccc3ncc(-c4ccc(OC(C)(C)C)cc4)n3c2)cn1 [Example C83, 3-(4-(tert-butoxy)phenyl)-6-(6-isopropoxypyridin-3-yl)imidazo[1,2-a]pyridine]
inhibition at 5 µM [1, 3]: < 50% | inhibition at 5 µM [1, 4]: 50 to 90%

Cc1cc2ncc(-c3ccc(OC(C)(C)C)nc3)n2cc1-c1ccc(OC(C)C)cc1 [Example C84, 3-(6-(tert-butoxy)pyridin-3-yl)-6-(4-isopropoxyphenyl)-7-methylimidazo[1,2-a]pyridine]
inhibition at 5 µM [1, 3]: < 50% | inhibition at 5 µM [1, 4]: 50 to 90%

Cc1cc2ncc(-c3ccc(OC(C)(C)C)nc3)n2cc1-c1ccc(OC(C)C)c(F)c1 [Example C85, 3-(6-(tert-butoxy)pyridin-3-yl)-6-(3-fluoro-4-isopropoxyphenyl)-7-methylimidazo[1,2-a]pyridine]
inhibition at 5 µM [1, 3]: < 50% | inhibition at 5 µM [1, 4]: 50 to 90%

CC(C)(C)Oc1ccc(-c2cnc3ccc(-c4cnc(OCC(F)(F)F)c(F)c4)cn23)cc1 [Example C86, 3-(4-(tert-butoxy)phenyl)-6-(5-fluoro-6-(2,2,2-trifluoroethoxy)pyridin-3-yl)imidazo[1,2-a]pyridine]
inhibition at 5 µM [1, 3]: < 50% | inhibition at 5 µM [1, 4]: > 90%

CC(C)Oc1ccc(-c2ccc3ncc(-c4ccc(Oc5ccccc5)nc4)n3c2)cc1 [Example C88, 6-(4-isopropoxyphenyl)-3-(6-phenoxypyridin-3-yl)imidazo[1,2-a]pyridine]
inhibition at 5 µM [1, 3]: < 50% | inhibition at 5 µM [1, 4]: > 90%

CC(C)Oc1ccc(-c2cn3c(-c4ccc(OC(C)(C)C)cc4)cnc3cc2Cl)cc1 [Example C91, 3-(4-(tert-butoxy)phenyl)-7-chloro-6-(4-isopropoxyphenyl)imidazo[1,2-a]pyridine]
inhibition at 2.5 µM [1, 5]: < 50% | inhibition at 2.5 µM [1, 6]: < 50%

CC(C)Oc1ccc(-c2ccc3ncc(-c4ccc(OC(C)C)cc4)n3n2)cc1 [Example D10, 3,6-bis[4-(propan-2-yloxy)phenyl]imidazo[1,2-b]pyridazine]
inhibition at 5 µM [1, 3]: < 50% | inhibition at 5 µM [1, 4]: > 90%

Cc1cc2ncc(-c3ccc(OC(C)(C)C)cc3)n2nc1-c1ccc(OC(C)C)cc1 [Example D23, 3-(4-(tert-butoxy)phenyl)-6-(4-isopropoxyphenyl)-7-methylimidazo[1,2-b]pyridazine]
inhibition at 5 µM [1, 3]: < 50% | inhibition at 5 µM [1, 4]: 50 to 90%
